Laboratory results taken from patent US20110040086A1, “Novel Beta-Lactam Antibiotics, Methods for Their Production, and Their Use” (DRITTE PATENTPORTFOLIO BETEILIGUNGSGESELLSCHAFT MB, priority 2007, published 2011).

Columns and labels:
[1] = system: Bacillus megaterium SBUG 1152; assay: agar diffusion test (Test System 1, antimicrobial effect); assay type: cell-based
Outline: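 B. megaterium SBUG 1152 grown overnight (17 h, 37° C., 180 rpm) and seeded at 10^6 cells per 10 ml nutrient agar. Compound at 10, 50 and 100 μg, dissolved in methanol or water, applied to paper discs. Inhibition-zone diameter (mm) read after 20 h at 37° C.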

[2] = system: Enterococcus faecalis 769; assay: agar diffusion test (Test System II, multi-resistant germs); assay type: cell-based; set-up: key: r = resistant (no detectable zone of inhibition)
Outline: (§1)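 Zone diameters around compound-loaded discs serve as the activity measure. Plates of Müller-Hinton agar II receive a three-layer coating of McFarland 0.5 suspension and three discs containing 10, 50 or 100 μg, then stand 18-20 h at 37 °C.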

[3] = system: Staphylococcus aureus 315; assay: as above; assay type: cell-based; set-up: key: r = resistant (no detectable zone of inhibition)
Outline: as §1

S. aureus 33490 = assay: as above; assay type: cell-based, Staphylococcus aureus; set-up: key: r = resistant (no detectable zone of inhibition)
Outline: as §1

S. aureus 34289 = assay: as above; assay type: cell-based, Staphylococcus aureus; set-up: key: r = resistant (no detectable zone of inhibition)
Outline: as §1

S. aureus 36881 = assay: as above; assay type: cell-based, Staphylococcus aureus; set-up: key: r = resistant (no detectable zone of inhibition)
Outline: as §1

S. aureus 39105 = assay: as above; assay type: cell-based, Staphylococcus aureus; set-up: key: r = resistant (no detectable zone of inhibition)
Outline: as §1

S. aureus 520 = assay: as above; assay type: cell-based, Staphylococcus aureus; set-up: key: r = resistant (no detectable zone of inhibition)
Outline: as §1

S. aureus 526 = assay: as above; assay type: cell-based, Staphylococcus aureus; set-up: key: r = resistant (no detectable zone of inhibition)
Outline: as §1

[4] = system: S. aureus North Germany strain; assay: as above; assay type: cell-based, Staphylococcus aureus; set-up: key: r = resistant (no detectable zone of inhibition)
Outline: as §1

S. aureus 38418 = assay: as above; assay type: cell-based, Staphylococcus aureus
Outline: as §1

S. aureus ATCC 6538 = assay: as above; assay type: cell-based, Staphylococcus aureus
Outline: as §1

S. epidermidis 125 = assay: as above; assay type: cell-based, Staphylococcus epidermidis
Outline: as §1

[5] = system: Staphylococcus aureus ATCC 6538; assay: mouse infected with Staphylococcus aureus infection model (survival); assay type: in vivo, BALB/c mice
Outline: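 BALB/c mice, at least 3 per group, made neutropenic with cyclophosphamide i.p. (250 mg/kg day 0, 100 mg/kg day 2). Infected i.p. on day 3 with 10 μl/g of S. aureus suspension at OD550 0.6 (ca. 10^10-10^12 CFU). Antibiotic given i.p. in PBS with 3% DMSO 30 min post-infection, then repeated; survival recorded.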

Compound: NC(=O)C1=C(NC(C(=O)NC2C(=O)N3C(C(=O)O)=C(Cl)CSC23)c2ccccc2)C(=O)C=CC1=O (stereo not drawn) [1j, 3-chlorine-7-[2-(2-carbamoyl-3,6-dioxocyclohexa-1,4-dienylamino)-2-phenyl-acetylamino]-8-oxo-1-thia-5-azabicyclo[4.2.0]oct-3-en-4-carboxylic acid]
- Diameter of zone of inhibition ([1]; Quantity n 0.02): 28 mm
- Diameter of zone of inhibition ([1]; Quantity n 0.1): 36 mm
- Diameter of zone of inhibition ([1]; Quantity n 0.2): 40 mm
- Diameter of zone of inhibition ([2]; Quantity n 0.02): r
- Diameter of zone of inhibition ([2]; Quantity n 0.1): 8 mm
- Diameter of zone of inhibition ([2]; Quantity n 0.2): 12 mm
- Diameter of zone of inhibition ([3]; Quantity n 0.02): r
- Diameter of zone of inhibition ([3]; Quantity n 0.1): 8 mm
- Diameter of zone of inhibition ([3]; Quantity n 0.2): 12 mm
- Diameter of zone of inhibition (S. aureus 33490; Quantity n [μmol] 0.02): 16 mm
- Diameter of zone of inhibition (S. aureus 33490; Quantity n [μmol] 0.1): 24 mm
- Diameter of zone of inhibition (S. aureus 33490; Quantity n [μmol] 0.2): 26 mm
- Diameter of zone of inhibition (S. aureus 34289; Quantity n [mol] 0.02): r
- Diameter of zone of inhibition (S. aureus 34289; Quantity n [mol] 0.1): r
- Diameter of zone of inhibition (S. aureus 34289; Quantity n [mol] 0.2): r
- Diameter of zone of inhibition (S. aureus 36881; Quantity n 0.02): r
- Diameter of zone of inhibition (S. aureus 36881; Quantity n 0.1): 12 mm
- Diameter of zone of inhibition (S. aureus 36881; Quantity n 0.2): 16 mm
- Diameter of zone of inhibition (S. aureus 39105; Quantity n 0.02): r
- Diameter of zone of inhibition (S. aureus 39105; Quantity n 0.1): 16 mm
- Diameter of zone of inhibition (S. aureus 39105; Quantity n 0.2): 18 mm
- Diameter of zone of inhibition (S. aureus 520; Quantity n [mol] 0.02): r
- Diameter of zone of inhibition (S. aureus 520; Quantity n [mol] 0.1): 8 mm
- Diameter of zone of inhibition (S. aureus 520; Quantity n [mol] 0.2): 12 mm
- Diameter of zone of inhibition (S. aureus 526; Quantity n 0.02): r
- Diameter of zone of inhibition (S. aureus 526; Quantity n 0.1): r
- Diameter of zone of inhibition (S. aureus 526; Quantity n 0.2): r
- Diameter of zone of inhibition ([4]; Quantity n 0.02): r
- Diameter of zone of inhibition ([4]; Quantity n 0.1): 12 mm
- Diameter of zone of inhibition ([4]; Quantity n 0.2): 16 mm
- Diameter of zone of inhibition (S. aureus 38418; Quantity n [mol] 0.02): 22 mm
- Diameter of zone of inhibition (S. aureus 38418; Quantity n [mol] 0.1): 30 mm
- Diameter of zone of inhibition (S. aureus 38418; Quantity n [mol] 0.2): 34 mm
- Diameter of zone of inhibition (S. aureus ATCC 6538; Quantity n 0.02): 28 mm
- Diameter of zone of inhibition (S. aureus ATCC 6538; Quantity n 0.1): 34 mm
- Diameter of zone of inhibition (S. aureus ATCC 6538; Quantity n 0.2): 38 mm
- Diameter of zone of inhibition (S. epidermidis 125; Quantity n 0.02): 22 mm
- Diameter of zone of inhibition (S. epidermidis 125; Quantity n 0.1): 30 mm
- Diameter of zone of inhibition (S. epidermidis 125; Quantity n 0.2): 32 mm
- Survival/tested mice n/n ([5]; 2 × 0.5 mg (25 mg/kg) i.p.): 3/3

Compound: 3-chlorine-7-[2-(2-methoxycarbonyl-3,6-dioxocyclohexa-1,4-dienylamino)-2-phenyl-acetylamino]-8-oxo-1-thia-5-azabicyclo[4.2.0]oct-3-en-4-carboxylic acid [1k]
- Diameter of zone of inhibition ([1]; Quantity n 0.029): 30 mm
- Diameter of zone of inhibition ([1]; Quantity n 0.14): 36 mm
- Diameter of zone of inhibition ([1]; Quantity n 0.29): 38 mm
- Diameter of zone of inhibition ([2]; Quantity n 0.029): r
- Diameter of zone of inhibition ([2]; Quantity n 0.14): 8 mm
- Diameter of zone of inhibition ([2]; Quantity n 0.29): 14 mm
- Diameter of zone of inhibition ([3]; Quantity n 0.029): r
- Diameter of zone of inhibition ([3]; Quantity n 0.14): 12 mm
- Diameter of zone of inhibition ([3]; Quantity n 0.29): 14 mm
- Diameter of zone of inhibition (S. aureus 33490; Quantity n [μmol] 0.029): 16 mm
- Diameter of zone of inhibition (S. aureus 33490; Quantity n [μmol] 0.14): 24 mm
- Diameter of zone of inhibition (S. aureus 33490; Quantity n [μmol] 0.29): 26 mm
- Diameter of zone of inhibition (S. aureus 34289; Quantity n [mol] 0.029): r
- Diameter of zone of inhibition (S. aureus 34289; Quantity n [mol] 0.14): r
- Diameter of zone of inhibition (S. aureus 34289; Quantity n [mol] 0.29): r
- Diameter of zone of inhibition (S. aureus 36881; Quantity n 0.029): r
- Diameter of zone of inhibition (S. aureus 36881; Quantity n 0.14): 14 mm
- Diameter of zone of inhibition (S. aureus 36881; Quantity n 0.29): 18 mm
- Diameter of zone of inhibition (S. aureus 39105; Quantity n 0.029): 8 mm
- Diameter of zone of inhibition (S. aureus 39105; Quantity n 0.14): 20 mm
- Diameter of zone of inhibition (S. aureus 39105; Quantity n 0.29): 22 mm
- Diameter of zone of inhibition (S. aureus 520; Quantity n [mol] 0.029): r
- Diameter of zone of inhibition (S. aureus 520; Quantity n [mol] 0.14): r
- Diameter of zone of inhibition (S. aureus 520; Quantity n [mol] 0.29): 10 mm
- Diameter of zone of inhibition (S. aureus 526; Quantity n 0.029): r
- Diameter of zone of inhibition (S. aureus 526; Quantity n 0.14): r
- Diameter of zone of inhibition (S. aureus 526; Quantity n 0.29): r
- Diameter of zone of inhibition ([4]; Quantity n 0.029): r
- Diameter of zone of inhibition ([4]; Quantity n 0.14): 14 mm
- Diameter of zone of inhibition ([4]; Quantity n 0.29): 18 mm
- Diameter of zone of inhibition (S. aureus 38418; Quantity n [mol] 0.029): 22 mm
- Diameter of zone of inhibition (S. aureus 38418; Quantity n [mol] 0.14): 30 mm
- Diameter of zone of inhibition (S. aureus 38418; Quantity n [mol] 0.29): 34 mm
- Diameter of zone of inhibition (S. aureus ATCC 6538; Quantity n 0.029): 28 mm
- Diameter of zone of inhibition (S. aureus ATCC 6538; Quantity n 0.14): 36 mm
- Diameter of zone of inhibition (S. aureus ATCC 6538; Quantity n 0.29): 38 mm
- Diameter of zone of inhibition (S. epidermidis 125; Quantity n 0.029): 20 mm
- Diameter of zone of inhibition (S. epidermidis 125; Quantity n 0.14): 30 mm
- Diameter of zone of inhibition (S. epidermidis 125; Quantity n 0.29): 32 mm
- Survival/tested mice n/n ([5]; 2 × 1.5 mg (75 mg/kg) i.p.): 3/3

Compound: CCOC(=O)C1=C(NC(C(=O)NC2C(=O)N3C(C(=O)O)=C(Cl)CSC23)c2ccccc2)C(=O)C=CC1=O (stereo not drawn) [1l]
- Diameter of zone of inhibition ([1]; Quantity n 0.019): 30 mm
- Diameter of zone of inhibition ([1]; Quantity n 0.09): 34 mm
- Diameter of zone of inhibition ([1]; Quantity n 0.19): 38 mm
- Diameter of zone of inhibition ([2]; Quantity n 0.019): r
- Diameter of zone of inhibition ([2]; Quantity n 0.09): r
- Diameter of zone of inhibition ([2]; Quantity n 0.19): r
- Diameter of zone of inhibition ([3]; Quantity n 0.019): r
- Diameter of zone of inhibition ([3]; Quantity n 0.09): 10 mm
- Diameter of zone of inhibition ([3]; Quantity n 0.19): 14 mm
- Diameter of zone of inhibition (S. aureus 33490; Quantity n [μmol] 0.019): 14 mm
- Diameter of zone of inhibition (S. aureus 33490; Quantity n [μmol] 0.09): 20 mm
- Diameter of zone of inhibition (S. aureus 33490; Quantity n [μmol] 0.19): 24 mm
- Diameter of zone of inhibition (S. aureus 34289; Quantity n [mol] 0.019): r
- Diameter of zone of inhibition (S. aureus 34289; Quantity n [mol] 0.09): r
- Diameter of zone of inhibition (S. aureus 34289; Quantity n [mol] 0.19): r
- Diameter of zone of inhibition (S. aureus 36881; Quantity n 0.019): r
- Diameter of zone of inhibition (S. aureus 36881; Quantity n 0.09): 8 mm
- Diameter of zone of inhibition (S. aureus 36881; Quantity n 0.19): 18 mm
- Diameter of zone of inhibition (S. aureus 39105; Quantity n 0.019): r
- Diameter of zone of inhibition (S. aureus 39105; Quantity n 0.09): 18 mm
- Diameter of zone of inhibition (S. aureus 39105; Quantity n 0.19): 22 mm
- Diameter of zone of inhibition (S. aureus 520; Quantity n [mol] 0.019): r
- Diameter of zone of inhibition (S. aureus 520; Quantity n [mol] 0.09): r
- Diameter of zone of inhibition (S. aureus 520; Quantity n [mol] 0.19): 10 mm
- Diameter of zone of inhibition (S. aureus 526; Quantity n 0.019): r
- Diameter of zone of inhibition (S. aureus 526; Quantity n 0.09): r
- Diameter of zone of inhibition (S. aureus 526; Quantity n 0.19): r
- Diameter of zone of inhibition ([4]; Quantity n 0.019): r
- Diameter of zone of inhibition ([4]; Quantity n 0.09): 10 mm
- Diameter of zone of inhibition ([4]; Quantity n 0.19): 16 mm
- Diameter of zone of inhibition (S. aureus 38418; Quantity n [mol] 0.019): 18 mm
- Diameter of zone of inhibition (S. aureus 38418; Quantity n [mol] 0.09): 28 mm
- Diameter of zone of inhibition (S. aureus 38418; Quantity n [mol] 0.19): 30 mm
- Diameter of zone of inhibition (S. aureus ATCC 6538; Quantity n 0.019): 24 mm
- Diameter of zone of inhibition (S. aureus ATCC 6538; Quantity n 0.09): 30 mm
- Diameter of zone of inhibition (S. aureus ATCC 6538; Quantity n 0.19): 34 mm
- Diameter of zone of inhibition (S. epidermidis 125; Quantity n 0.019): 18 mm
- Diameter of zone of inhibition (S. epidermidis 125; Quantity n 0.09): 26 mm
- Diameter of zone of inhibition (S. epidermidis 125; Quantity n 0.19): 28 mm
- Survival/tested mice n/n ([5]; 2 × 1.0 mg (50 mg/kg) i.p.): 3/3
